Measurements from PMC10838953.

Tests used:
EPHA3 = EPHA3 (Homo sapiens, UniProt P29320); test: biochemical; details: read-out: %Ctrl @ 2000nM
p38-gamma = p38-gamma (Homo sapiens, UniProt P53778); test: biochemical; details: read-out: %Ctrl @ 2000nM
DYRK1A = DYRK1A (Homo sapiens, UniProt Q13627); test: biochemical; details: read-out: %Ctrl @ 2000nM
[1] = biological target: ABL1(H396P)-phosphorylated (Homo sapiens, UniProt P00519, H396P); test: biochemical; details: read-out: %Ctrl @ 2000nM
SYK = SYK (Homo sapiens, UniProt P43405); test: biochemical; details: read-out: %Ctrl @ 2000nM
MARK3 = MARK3 (Homo sapiens, UniProt P27448); test: biochemical; details: read-out: %Ctrl @ 2000nM
MARK3, sequence (P27448 whole entry): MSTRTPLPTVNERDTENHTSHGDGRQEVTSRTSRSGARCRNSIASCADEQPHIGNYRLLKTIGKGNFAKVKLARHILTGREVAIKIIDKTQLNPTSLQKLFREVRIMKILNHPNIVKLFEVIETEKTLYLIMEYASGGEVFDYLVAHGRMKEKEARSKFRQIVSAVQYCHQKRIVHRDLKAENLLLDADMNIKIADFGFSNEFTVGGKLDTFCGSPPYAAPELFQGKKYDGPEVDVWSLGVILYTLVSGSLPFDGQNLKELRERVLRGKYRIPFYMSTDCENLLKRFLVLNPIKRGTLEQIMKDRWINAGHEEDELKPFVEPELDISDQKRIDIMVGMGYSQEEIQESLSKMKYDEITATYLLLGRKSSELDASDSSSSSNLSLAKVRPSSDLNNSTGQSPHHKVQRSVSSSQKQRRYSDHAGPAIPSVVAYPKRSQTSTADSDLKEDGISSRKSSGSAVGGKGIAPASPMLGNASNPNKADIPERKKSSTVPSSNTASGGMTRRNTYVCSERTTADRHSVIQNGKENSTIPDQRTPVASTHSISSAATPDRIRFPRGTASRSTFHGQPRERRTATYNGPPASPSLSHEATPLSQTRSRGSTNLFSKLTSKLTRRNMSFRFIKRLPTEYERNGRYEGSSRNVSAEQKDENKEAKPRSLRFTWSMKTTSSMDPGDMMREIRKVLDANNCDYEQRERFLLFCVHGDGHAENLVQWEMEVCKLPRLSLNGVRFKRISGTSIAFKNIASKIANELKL

EPHB2 = EPHB2 (Homo sapiens, UniProt P29323); test: biochemical; details: read-out: %Ctrl @ 2000nM
EPHB6 = EPHB6 (Homo sapiens, UniProt O15197); test: biochemical; details: read-out: %Ctrl @ 2000nM
RAF1 = RAF1 (Homo sapiens, UniProt P04049); test: biochemical; details: read-out: %Ctrl @ 2000nM
PIP5K1A = PIP5K1A (Homo sapiens, UniProt Q99755); test: biochemical; details: read-out: %Ctrl @ 2000nM
PKNB(M.tuberculosis) = PKNB(M.tuberculosis) (Mycobacterium tuberculosis, UniProt P9WI81); test: biochemical; details: read-out: %Ctrl @ 2000nM
CASK = CASK (Homo sapiens, UniProt O14936); test: biochemical; details: read-out: %Ctrl @ 2000nM
CASK, sequence (O14936 whole entry): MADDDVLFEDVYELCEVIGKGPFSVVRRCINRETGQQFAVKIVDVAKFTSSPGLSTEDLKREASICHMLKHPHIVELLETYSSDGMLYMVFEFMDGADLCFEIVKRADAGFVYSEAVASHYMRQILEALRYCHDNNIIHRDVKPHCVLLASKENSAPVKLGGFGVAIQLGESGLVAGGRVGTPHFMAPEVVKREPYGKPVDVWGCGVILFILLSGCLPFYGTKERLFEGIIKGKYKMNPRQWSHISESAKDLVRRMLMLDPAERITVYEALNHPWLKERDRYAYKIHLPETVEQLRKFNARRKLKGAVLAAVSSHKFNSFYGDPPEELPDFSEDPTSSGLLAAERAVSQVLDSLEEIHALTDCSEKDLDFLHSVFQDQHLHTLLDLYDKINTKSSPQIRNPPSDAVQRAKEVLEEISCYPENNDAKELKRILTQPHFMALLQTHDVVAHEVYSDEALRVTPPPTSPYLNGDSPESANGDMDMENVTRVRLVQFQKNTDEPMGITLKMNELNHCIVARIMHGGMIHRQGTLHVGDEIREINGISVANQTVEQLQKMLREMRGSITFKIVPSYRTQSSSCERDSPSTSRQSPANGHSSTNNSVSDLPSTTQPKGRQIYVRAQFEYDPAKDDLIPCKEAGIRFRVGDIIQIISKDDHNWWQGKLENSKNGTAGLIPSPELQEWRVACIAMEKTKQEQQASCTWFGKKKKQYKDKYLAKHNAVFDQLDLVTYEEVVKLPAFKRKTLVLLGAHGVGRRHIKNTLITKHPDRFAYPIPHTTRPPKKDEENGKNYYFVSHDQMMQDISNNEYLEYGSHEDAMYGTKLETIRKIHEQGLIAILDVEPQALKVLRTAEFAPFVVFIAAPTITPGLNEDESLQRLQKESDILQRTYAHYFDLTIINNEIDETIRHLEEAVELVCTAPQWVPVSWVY

CLK2 = CLK2 (Homo sapiens, UniProt P49760); test: biochemical; details: read-out: %Ctrl @ 2000nM
SgK110 = SgK110 (Homo sapiens, UniProt P0C264); test: biochemical; details: read-out: %Ctrl @ 2000nM
SgK110, sequence (P0C264 whole entry): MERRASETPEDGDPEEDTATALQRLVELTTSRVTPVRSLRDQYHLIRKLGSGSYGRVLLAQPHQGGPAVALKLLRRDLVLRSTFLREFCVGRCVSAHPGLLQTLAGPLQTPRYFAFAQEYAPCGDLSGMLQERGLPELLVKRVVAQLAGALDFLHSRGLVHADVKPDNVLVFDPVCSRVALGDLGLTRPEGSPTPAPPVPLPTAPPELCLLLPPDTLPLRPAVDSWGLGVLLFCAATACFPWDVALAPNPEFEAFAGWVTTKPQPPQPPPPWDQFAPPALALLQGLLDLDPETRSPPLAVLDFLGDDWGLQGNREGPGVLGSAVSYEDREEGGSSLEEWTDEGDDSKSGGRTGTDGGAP

CDK4 = CDK4 (Homo sapiens, UniProt P11802); test: biochemical; details: read-out: %Ctrl @ 2000nM
FLT3(N841I) = FLT3(N841I) (Homo sapiens, UniProt P36888, N841I); test: biochemical; details: read-out: %Ctrl @ 2000nM
EPHB3 = EPHB3 (Homo sapiens, UniProt P54753); test: biochemical; details: read-out: %Ctrl @ 2000nM
PLK4 = PLK4 (Homo sapiens, UniProt O00444); test: biochemical; details: read-out: %Ctrl @ 2000nM
CSF1R = CSF1R (Homo sapiens, UniProt P07333); test: biochemical; details: read-out: %Ctrl @ 2000nM
TAK1 = TAK1 (Homo sapiens, UniProt O43318); test: biochemical; details: read-out: %Ctrl @ 2000nM
PFCDPK1(P.falciparum) = PFCDPK1(P.falciparum) (Plasmodium falciparum, UniProt P62344); test: biochemical; details: read-out: %Ctrl @ 2000nM
CDK3 = CDK3 (Homo sapiens, UniProt Q00526); test: biochemical; details: read-out: %Ctrl @ 2000nM
CDK3, sequence (Q00526 whole entry): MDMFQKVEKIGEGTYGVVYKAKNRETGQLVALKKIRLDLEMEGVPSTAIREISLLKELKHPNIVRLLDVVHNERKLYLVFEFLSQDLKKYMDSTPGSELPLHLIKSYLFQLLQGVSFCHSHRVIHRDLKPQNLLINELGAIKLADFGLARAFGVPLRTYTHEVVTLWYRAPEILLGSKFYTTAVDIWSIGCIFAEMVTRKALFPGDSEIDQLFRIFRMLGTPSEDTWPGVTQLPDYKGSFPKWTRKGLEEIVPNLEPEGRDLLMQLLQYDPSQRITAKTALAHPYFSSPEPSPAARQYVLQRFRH

[2] = biological target: ABL1(M351T)-phosphorylated (Homo sapiens, UniProt P00519, M351T); test: biochemical; details: read-out: %Ctrl @ 2000nM
RIOK3 = RIOK3 (Homo sapiens, UniProt O14730); test: biochemical; details: read-out: %Ctrl @ 2000nM
ERK3 = ERK3 (Homo sapiens, UniProt Q16659); test: biochemical; details: read-out: %Ctrl @ 2000nM
PRKCH = PRKCH (Homo sapiens, UniProt P24723); test: biochemical; details: read-out: %Ctrl @ 2000nM
AKT1 = AKT1 (Homo sapiens, UniProt P31749); test: biochemical; details: read-out: %Ctrl @ 2000nM
TRKA = TRKA (Homo sapiens, UniProt P04629); test: biochemical; details: read-out: %Ctrl @ 2000nM
ERK2 = ERK2 (Homo sapiens, UniProt P28482); test: biochemical; details: read-out: %Ctrl @ 2000nM
ERK2, sequence (P28482 whole entry): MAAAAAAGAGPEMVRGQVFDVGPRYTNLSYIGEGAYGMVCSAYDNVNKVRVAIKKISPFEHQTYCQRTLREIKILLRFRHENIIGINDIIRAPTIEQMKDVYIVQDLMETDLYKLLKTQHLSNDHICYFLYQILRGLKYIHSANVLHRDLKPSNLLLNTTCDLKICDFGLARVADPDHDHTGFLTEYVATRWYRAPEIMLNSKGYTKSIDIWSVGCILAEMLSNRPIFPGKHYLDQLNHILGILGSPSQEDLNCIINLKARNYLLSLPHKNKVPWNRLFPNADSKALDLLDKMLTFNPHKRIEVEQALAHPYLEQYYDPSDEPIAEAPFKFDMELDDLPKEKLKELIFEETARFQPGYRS

[3] = biological target: RSK4(Kin.Dom.1-N-terminal) (Homo sapiens, UniProt Q9UK32); test: biochemical; details: read-out: %Ctrl @ 2000nM
TAOK2 = TAOK2 (Homo sapiens, UniProt Q9UL54); test: biochemical; details: read-out: %Ctrl @ 2000nM
DMPK2 = DMPK2 (Homo sapiens, UniProt Q6DT37); test: biochemical; details: read-out: %Ctrl @ 2000nM
DMPK2, sequence (Q6DT37 whole entry): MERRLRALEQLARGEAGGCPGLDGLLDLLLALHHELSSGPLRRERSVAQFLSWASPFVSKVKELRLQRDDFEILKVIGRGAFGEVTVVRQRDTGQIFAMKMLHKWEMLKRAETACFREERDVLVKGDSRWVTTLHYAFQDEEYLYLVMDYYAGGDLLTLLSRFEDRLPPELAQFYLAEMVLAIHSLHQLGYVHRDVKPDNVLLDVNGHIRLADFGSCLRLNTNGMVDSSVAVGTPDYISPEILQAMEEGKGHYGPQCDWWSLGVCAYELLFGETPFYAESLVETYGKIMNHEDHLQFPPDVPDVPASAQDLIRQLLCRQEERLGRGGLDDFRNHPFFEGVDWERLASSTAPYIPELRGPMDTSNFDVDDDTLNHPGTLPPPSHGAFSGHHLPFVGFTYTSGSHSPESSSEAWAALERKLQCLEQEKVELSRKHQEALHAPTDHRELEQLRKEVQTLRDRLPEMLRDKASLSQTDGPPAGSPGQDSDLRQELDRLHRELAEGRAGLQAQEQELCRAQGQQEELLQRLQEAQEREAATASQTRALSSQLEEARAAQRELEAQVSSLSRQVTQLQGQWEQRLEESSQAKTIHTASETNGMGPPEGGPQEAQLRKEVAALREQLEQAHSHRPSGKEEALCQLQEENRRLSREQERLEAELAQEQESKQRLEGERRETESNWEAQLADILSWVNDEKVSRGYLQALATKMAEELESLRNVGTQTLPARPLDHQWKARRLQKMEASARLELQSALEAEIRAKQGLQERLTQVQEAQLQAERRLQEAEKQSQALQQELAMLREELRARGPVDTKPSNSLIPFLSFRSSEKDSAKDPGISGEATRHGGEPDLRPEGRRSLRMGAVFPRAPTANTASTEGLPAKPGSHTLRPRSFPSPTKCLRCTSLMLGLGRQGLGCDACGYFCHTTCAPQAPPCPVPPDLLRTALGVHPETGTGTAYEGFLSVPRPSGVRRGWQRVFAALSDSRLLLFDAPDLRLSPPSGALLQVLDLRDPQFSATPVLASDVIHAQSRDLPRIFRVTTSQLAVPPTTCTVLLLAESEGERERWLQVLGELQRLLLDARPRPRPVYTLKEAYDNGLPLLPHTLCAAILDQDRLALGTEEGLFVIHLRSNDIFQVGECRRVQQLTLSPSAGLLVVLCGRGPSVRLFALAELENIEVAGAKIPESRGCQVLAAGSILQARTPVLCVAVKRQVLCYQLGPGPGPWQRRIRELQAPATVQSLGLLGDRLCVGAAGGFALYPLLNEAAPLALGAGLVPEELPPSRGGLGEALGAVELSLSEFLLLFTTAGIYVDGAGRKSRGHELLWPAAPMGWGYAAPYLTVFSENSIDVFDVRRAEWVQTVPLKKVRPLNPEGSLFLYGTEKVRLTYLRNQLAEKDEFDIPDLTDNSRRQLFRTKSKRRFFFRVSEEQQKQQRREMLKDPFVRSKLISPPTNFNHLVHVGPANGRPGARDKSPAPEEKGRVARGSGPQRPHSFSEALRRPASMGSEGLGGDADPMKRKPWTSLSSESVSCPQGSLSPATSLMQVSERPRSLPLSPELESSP

PIM2 = PIM2 (Homo sapiens, UniProt Q9P1W9); test: biochemical; details: read-out: %Ctrl @ 2000nM
PIM2, sequence (Q9P1W9 whole entry): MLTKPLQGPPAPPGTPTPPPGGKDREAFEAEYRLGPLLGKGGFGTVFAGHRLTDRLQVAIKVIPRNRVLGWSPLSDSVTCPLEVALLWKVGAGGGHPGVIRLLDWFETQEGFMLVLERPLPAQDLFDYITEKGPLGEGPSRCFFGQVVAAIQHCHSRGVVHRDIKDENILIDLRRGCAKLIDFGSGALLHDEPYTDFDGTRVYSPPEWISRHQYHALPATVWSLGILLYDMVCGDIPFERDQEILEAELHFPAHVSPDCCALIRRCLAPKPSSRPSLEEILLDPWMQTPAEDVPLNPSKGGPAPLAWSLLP

HIPK1 = HIPK1 (Homo sapiens, UniProt Q86Z02); test: biochemical; details: read-out: %Ctrl @ 2000nM
EPHA8 = EPHA8 (Homo sapiens, UniProt P29322); test: biochemical; details: read-out: %Ctrl @ 2000nM
CLK4 = CLK4 (Homo sapiens, UniProt Q9HAZ1); test: biochemical; details: read-out: %Ctrl @ 2000nM
PIP5K2C = PIP5K2C (Homo sapiens, UniProt Q8TBX8); test: biochemical; details: read-out: %Ctrl @ 2000nM
PIP5K2C, sequence (Q8TBX8 whole entry): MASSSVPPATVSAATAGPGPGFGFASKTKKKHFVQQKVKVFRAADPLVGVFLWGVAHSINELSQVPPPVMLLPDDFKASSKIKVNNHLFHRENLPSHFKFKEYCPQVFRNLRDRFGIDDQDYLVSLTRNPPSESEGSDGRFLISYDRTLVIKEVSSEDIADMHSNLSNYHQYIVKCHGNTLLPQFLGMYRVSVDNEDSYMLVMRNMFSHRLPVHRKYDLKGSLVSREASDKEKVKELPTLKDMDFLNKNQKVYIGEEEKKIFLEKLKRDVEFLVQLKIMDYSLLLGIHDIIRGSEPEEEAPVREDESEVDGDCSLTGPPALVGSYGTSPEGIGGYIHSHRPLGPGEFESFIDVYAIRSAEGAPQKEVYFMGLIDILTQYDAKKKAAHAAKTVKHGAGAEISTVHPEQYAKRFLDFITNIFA

NDR1 = NDR1 (Homo sapiens, UniProt Q15208); test: biochemical; details: read-out: %Ctrl @ 2000nM
YANK1 = YANK1 (Homo sapiens, UniProt Q8WU08); test: biochemical; details: read-out: %Ctrl @ 2000nM
EGFR(L861Q) = EGFR(L861Q) (Homo sapiens, UniProt P00533, L861Q); test: biochemical; details: read-out: %Ctrl @ 2000nM

CC(C)COC(=O)c1[nH]c2ccc(F)cc2c1-c1cn(CC2CCN(CCNS(=O)(=O)c3ccc(CC(C)C)cc3)CC2)nn1 [AB668, isobutyl 5-fluoro-3-(1-((1-(2-((4-isobutylphenyl)sulfonamido)ethyl)piperidin-4-yl)methyl)-1H-1,2,3-triazol-4-yl)-1H-indole-2-carboxylate]
remaining activity at 2 µM (EPHA3): 86%
remaining activity at 2 µM (p38-gamma): 74%
remaining activity at 2 µM (DYRK1A): 99%
remaining activity at 2 µM [1]: 80%
remaining activity at 2 µM (SYK): 100%
remaining activity at 2 µM (MARK3): 0%
remaining activity at 2 µM (EPHB2): 98%
remaining activity at 2 µM (EPHB6): 82%
remaining activity at 2 µM (RAF1): 100%
remaining activity at 2 µM (PIP5K1A): 85%
remaining activity at 2 µM (PKNB(M.tuberculosis)): 100%
remaining activity at 2 µM (CASK): 97%
remaining activity at 2 µM (CLK2): 98%
remaining activity at 2 µM (SgK110): 71%
remaining activity at 2 µM (CDK4): 100%
remaining activity at 2 µM (FLT3(N841I)): 95%
remaining activity at 2 µM (EPHB3): 80%
remaining activity at 2 µM (PLK4): 94%
remaining activity at 2 µM (CSF1R): 100%
remaining activity at 2 µM (TAK1): 84%
remaining activity at 2 µM (PFCDPK1(P.falciparum)): 81%
remaining activity at 2 µM (CDK3): 100%
remaining activity at 2 µM [2]: 86%
%Ctrl @ 2000nM (FLT3(ITD,D835V)): 77%
remaining activity at 2 µM (RIOK3): 97%
%Ctrl @ 2000nM (FLT3(ITD,F691L)): 96%
remaining activity at 2 µM (ERK3): 91%
cytotoxicity (primary hepatocytes): no cytotoxicity
remaining activity at 2 µM (PRKCH): 92%
remaining activity at 2 µM (AKT1): 88%
remaining activity at 2 µM (TRKA): 96%
remaining activity at 2 µM (ERK2): 100%
remaining activity at 2 µM [3]: 88%
remaining activity at 2 µM (TAOK2): 100%
remaining activity at 2 µM (DMPK2): 85%
remaining activity at 2 µM (PIM2): 84%
remaining activity at 2 µM (HIPK1): 100%
remaining activity at 2 µM (EPHA8): 92%
remaining activity at 2 µM (CLK4): 97%
remaining activity at 2 µM (PIP5K2C): 81%
remaining activity at 2 µM (NDR1): 93%
remaining activity at 2 µM (YANK1): 78%
remaining activity at 2 µM (EGFR(L861Q)): 79%
